Assay results published in patent US6914045B2, “Glycopeptide antibiotics” (Wyeth Holdings Corporation, priority 2001, dated 2005).

What was measured:
Assay in all cases: in vitro antibacterial evaluation, MIC by broth dilution
Assay type in all cases: cell-based
Enterococcus sp. = details: broth dilution, 18 hours at 35° C.
How it was run: (§1)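 MIC = lowest antibiotic concentration preventing visible growth; inoculum 5×10^5 CFU/mL; drug range 64-0.06 μg/mL; Muller-Hinton II […]; NCCLS M7-A2 guidance.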

Staphylococcus sp. = details: broth dilution, 18 hours at 35° C.; for MIC Staphylococcus aureus (ATCC 29213): strain ATCC 29213; for MIC Staphylococcus aureus (GC 1131): strain GC 1131; for MIC Staphylococcus aureus (GC 3051): strain GC 3051; for MIC Staphylococcus aureus (GC 3053): strain GC 3053; for MIC Staphylococcus aureus (GC 4541): strain GC 4541; for MIC Staphylococcus aureus (GC 4542): strain GC 4542; for MIC Staphylococcus aureus (GC 4544): strain GC 4544; for MIC Staphylococcus aureus (GC 4545): strain GC 4545
How it was run: as §1

Streptococcus sp. = details: broth dilution, 18 hours at 35° C.
How it was run: as §1

Escherichia coli = details: 18 hours at 35° C.
How it was run: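 Broth dilution MIC per NCCLS M7-A2 in Mueller-Hinton II medium, inoculum 5×10^5 CFU/mL, antibiotic range 64-0.06 μg/mL. MIC taken as lowest concentration inhibiting growth.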

[1] = Enterococcus faecalis (ATCC 29212)
[2] = Enterococcus faecalis (GC 4552)
[3] = Enterococcus faecalis (GC 4553)
[4] = Enterococcus faecalis (GC 4554)
[5] = Enterococcus faecalis (GC 6189)

Di-N-(4-tert-butylbenzyl)-cyclo[glycyl-β-methylphenylalanyl-O-(4-O-hexopyranosylhexopyranosyl)tyrosyl-3-(2-iminoimidazolidin-4-yl)seryl-3-(3-hexoopyranosyl-2-iminoimidazolidin-4-yl)serylseryl] [Example 60a]
MIC Enterococcus avium (GC 4558) (Enterococcus sp.; Enterococcus avium (GC 4558)): 128 µg/mL | MIC Enterococcus faecalis (ATCC 29212) (Enterococcus sp.; [1]): >128 µg/mL | MIC Enterococcus faecalis (GC 4552) (Enterococcus sp.; [2]): >128 µg/mL | MIC Enterococcus faecalis (GC 4553) (Enterococcus sp.; [3]): 128 µg/mL | MIC Enterococcus faecalis (GC 4554) (Enterococcus sp.; [4]): >128 µg/mL | MIC Enterococcus faecalis (GC 6189) (Enterococcus sp.; [5]): >128 µg/mL | MIC Enterococcus faecium (GC 2243) (Enterococcus sp.; Enterococcus faecium (GC 2243)): >128 µg/mL | MIC Enterococcus faecium (GC 4556) (Enterococcus sp.; Enterococcus faecium (GC 4556)): >128 µg/mL | MIC Enterococcus faecium (GC 4557) (Enterococcus sp.; Enterococcus faecium (GC 4557)): 128 µg/mL | MIC Enterococcus avium (GC 4558) (Enterococcus sp.): 128 µg/mL | MIC Enterococcus faecalis (ATCC 29212) (Enterococcus sp.): >128 µg/mL | MIC Enterococcus faecalis (GC 2242) (Enterococcus sp.): >128 µg/mL | MIC Enterococcus faecalis (GC 2691) (Enterococcus sp.): >128 µg/mL | MIC Enterococcus faecalis (GC 3059) (Enterococcus sp.): >128 µg/mL | MIC Enterococcus faecalis (GC 4552) (Enterococcus sp.): >128 µg/mL | MIC Enterococcus faecalis (GC 4553) (Enterococcus sp.): 128 µg/mL | MIC Enterococcus faecalis (GC 4554) (Enterococcus sp.): >128 µg/mL | MIC Enterococcus faecalis (GC 6189) (Enterococcus sp.): >128 µg/mL | MIC Enterococcus faecium (GC 2243) (Enterococcus sp.): >128 µg/mL | MIC Enterococcus faecium (GC 4556) (Enterococcus sp.): >128 µg/mL | MIC Enterococcus faecium (GC 4557) (Enterococcus sp.): 128 µg/mL | MIC Enterococcus faecalis (GC 2242) (Enterococcus sp.; strain GC 2242): >128 µg/mL | MIC Enterococcus faecalis (GC 2691) (Enterococcus sp.; strain GC 2691): >128 µg/mL | MIC Enterococcus faecalis (GC 3059) (Enterococcus sp.; strain GC 3059): >128 µg/mL | MIC Staphylococcus aureus (ATCC 29213) (Staphylococcus sp.): >128 µg/mL | MIC Staphylococcus aureus (GC 1131) (Staphylococcus sp.): >128 µg/mL | MIC Staphylococcus aureus (GC 3051) (Staphylococcus sp.): >128 µg/mL | MIC Staphylococcus aureus (GC 3053) (Staphylococcus sp.): >128 µg/mL | MIC Staphylococcus aureus (GC 4541) (Staphylococcus sp.): >128 µg/mL | MIC Staphylococcus aureus (GC 4542) (Staphylococcus sp.): >128 µg/mL | MIC Staphylococcus aureus-SMITH (GC 4543) (Staphylococcus sp.; strain GC 4543): >128 µg/mL | MIC Staphylococcus aureus (GC 4544) (Staphylococcus sp.): >128 µg/mL | MIC Staphylococcus aureus (GC 4545) (Staphylococcus sp.): >128 µg/mL | MIC Staphylococcus haemolyticus (GC 4546) (Staphylococcus sp.; strain GC 4546): >128 µg/mL | MIC Coagulase Negative Staphylococcus (GC 4547) (Staphylococcus sp.; strain GC 4547): >128 µg/mL | MIC Coagulase Negative Staphylococcus (GC 4548) (Staphylococcus sp.; strain GC 4548): >128 µg/mL | MIC Coagulase Negative Staphylococcus (GC 4549) (Staphylococcus sp.; strain GC 4549): >128 µg/mL | MIC Coagulase Negative Staphylococcus (GC 4551) (Staphylococcus sp.; strain GC 4551): >128 µg/mL | MIC Coagulase Negative Staphylococcus (GC 6257) (Staphylococcus sp.; strain GC 6257): >128 µg/mL | MIC Streptococcus agalactiae (GC 4564) (Streptococcus sp.): >128 µg/mL | MIC Streptococcus pneumoniae (ATCC 6301) (Streptococcus sp.): >128 µg/mL | MIC Streptococcus pneumoniae (GC 1894) (Streptococcus sp.): 64 µg/mL | MIC Streptococcus pneumoniae (GC 4565) (Streptococcus sp.): 128 µg/mL | MIC Streptococcus pyogenes (GC 4563) (Streptococcus sp.): >128 µg/mL | MIC Streptococcus pneumoniae (ATCC 6301) (Streptococcus sp.; strain ATCC 6301): >128 µg/mL | MIC Streptococcus pneumoniae (GC 1894) (Streptococcus sp.; strain GC 1894): 64 µg/mL | MIC Streptococcus pyogenes (GC 4563) (Streptococcus sp.; strain GC 4563): >128 µg/mL | MIC Streptococcus agalactiae (GC 4564) (Streptococcus sp.; strain GC 4564): >128 µg/mL | MIC Streptococcus pneumoniae (GC 4565) (Streptococcus sp.; strain GC 4565): 128 µg/mL | MIC Escherichia coli (ATCC 25922) (Escherichia coli): >128 µg/mL | MIC Escherichia coli (GC 4559) (Escherichia coli): >128 µg/mL | MIC Escherichia coli (GC 4560) (Escherichia coli): 16 µg/mL

Tri-N-[(phenylmethoxy)carbonyl]-cyclo[glycl-β-methylphenylalanyltyrosyl-3-(2-iminoimidazolidin-4-yl)seryl-3-(3-hexopyranosyl-2-iminoimidazolidin-4-yl)serylseryl] [Example 89]
MIC Enterococcus avium (GC 4558) (Enterococcus sp.; Enterococcus avium (GC 4558)): 32 µg/mL | MIC Enterococcus faecalis (ATCC 29212) (Enterococcus sp.; [1]): 64 µg/mL | MIC Enterococcus faecalis (GC 4552) (Enterococcus sp.; [2]): 64 µg/mL | MIC Enterococcus faecalis (GC 4553) (Enterococcus sp.; [3]): 64 µg/mL | MIC Enterococcus faecalis (GC 4554) (Enterococcus sp.; [4]): 64 µg/mL | MIC Enterococcus faecalis (GC 6189) (Enterococcus sp.; [5]): 64 µg/mL | MIC Enterococcus faecium (GC 2243) (Enterococcus sp.; Enterococcus faecium (GC 2243)): 64 µg/mL | MIC Enterococcus faecium (GC 4556) (Enterococcus sp.; Enterococcus faecium (GC 4556)): 64 µg/mL | MIC Enterococcus faecium (GC 4557) (Enterococcus sp.; Enterococcus faecium (GC 4557)): 32 µg/mL | MIC Enterococcus avium (GC 4558) (Enterococcus sp.): 32 µg/mL | MIC Enterococcus faecalis (ATCC 29212) (Enterococcus sp.): 64 µg/mL | MIC Enterococcus faecalis (GC 2242) (Enterococcus sp.): 64 µg/mL | MIC Enterococcus faecalis (GC 2691) (Enterococcus sp.): 64 µg/mL | MIC Enterococcus faecalis (GC 3059) (Enterococcus sp.): 64 µg/mL | MIC Enterococcus faecalis (GC 4552) (Enterococcus sp.): 64 µg/mL | MIC Enterococcus faecalis (GC 4553) (Enterococcus sp.): 64 µg/mL | MIC Enterococcus faecalis (GC 4554) (Enterococcus sp.): 64 µg/mL | MIC Enterococcus faecalis (GC 6189) (Enterococcus sp.): 64 µg/mL | MIC Enterococcus faecium (GC 2243) (Enterococcus sp.): 64 µg/mL | MIC Enterococcus faecium (GC 4556) (Enterococcus sp.): 64 µg/mL | MIC Enterococcus faecium (GC 4557) (Enterococcus sp.): 32 µg/mL | MIC Enterococcus faecalis (GC 2242) (Enterococcus sp.; strain GC 2242): 64 µg/mL | MIC Enterococcus faecalis (GC 2691) (Enterococcus sp.; strain GC 2691): 64 µg/mL | MIC Enterococcus faecalis (GC 3059) (Enterococcus sp.; strain GC 3059): 64 µg/mL | MIC Coagulase Negative Staphylococcus (GC 4547) (Staphylococcus sp.): 32 µg/mL | MIC Coagulase Negative Staphylococcus (GC 4548) (Staphylococcus sp.): 64 µg/mL | MIC Coagulase Negative Staphylococcus (GC 4549) (Staphylococcus sp.): 64 µg/mL | MIC Coagulase Negative Staphylococcus (GC 4551) (Staphylococcus sp.): 64 µg/mL | MIC Coagulase Negative Staphylococcus (GC 6257) (Staphylococcus sp.): 32 µg/mL | MIC Staphylococcus aureus-SMITH (GC 4543) (Staphylococcus sp.): 64 µg/mL | MIC Staphylococcus haemolyticus (GC 4546) (Staphylococcus sp.): 32 µg/mL | MIC Staphylococcus aureus (ATCC 29213) (Staphylococcus sp.): 64 µg/mL | MIC Staphylococcus aureus (GC 1131) (Staphylococcus sp.): 64 µg/mL | MIC Staphylococcus aureus (GC 3051) (Staphylococcus sp.): 64 µg/mL | MIC Staphylococcus aureus (GC 3053) (Staphylococcus sp.): 64 µg/mL | MIC Staphylococcus aureus (GC 4541) (Staphylococcus sp.): 64 µg/mL | MIC Staphylococcus aureus (GC 4542) (Staphylococcus sp.): 64 µg/mL | MIC Staphylococcus aureus-SMITH (GC 4543) (Staphylococcus sp.; strain GC 4543): 64 µg/mL | MIC Staphylococcus aureus (GC 4544) (Staphylococcus sp.): 64 µg/mL | MIC Staphylococcus aureus (GC 4545) (Staphylococcus sp.): 64 µg/mL | MIC Staphylococcus haemolyticus (GC 4546) (Staphylococcus sp.; strain GC 4546): 32 µg/mL | MIC Coagulase Negative Staphylococcus (GC 4547) (Staphylococcus sp.; strain GC 4547): 32 µg/mL | MIC Coagulase Negative Staphylococcus (GC 4548) (Staphylococcus sp.; strain GC 4548): 64 µg/mL | MIC Coagulase Negative Staphylococcus (GC 4549) (Staphylococcus sp.; strain GC 4549): 64 µg/mL | MIC Coagulase Negative Staphylococcus (GC 4551) (Staphylococcus sp.; strain GC 4551): 64 µg/mL | MIC Coagulase Negative Staphylococcus (GC 6257) (Staphylococcus sp.; strain GC 6257): 32 µg/mL | MIC Streptococcus agalactiae (GC 4564) (Streptococcus sp.): 32 µg/mL | MIC Streptococcus pneumoniae (ATCC 6301) (Streptococcus sp.): 16 µg/mL | MIC Streptococcus pneumoniae (GC 1894) (Streptococcus sp.): 4 µg/mL | MIC Streptococcus pneumoniae (GC 4565) (Streptococcus sp.): 8 µg/mL | MIC Streptococcus pyogenes (GC 4563) (Streptococcus sp.): 32 µg/mL | MIC Streptococcus pneumoniae (ATCC 6301) (Streptococcus sp.; strain ATCC 6301): 16 µg/mL | MIC Streptococcus pneumoniae (GC 1894) (Streptococcus sp.; strain GC 1894): 4 µg/mL | MIC Streptococcus pyogenes (GC 4563) (Streptococcus sp.; strain GC 4563): 32 µg/mL | MIC Streptococcus agalactiae (GC 4564) (Streptococcus sp.; strain GC 4564): 32 µg/mL | MIC Streptococcus pneumoniae (GC 4565) (Streptococcus sp.; strain GC 4565): 8 µg/mL | MIC Escherichia coli (ATCC 25922) (Escherichia coli): >64 µg/mL | MIC Escherichia coli (GC 4559) (Escherichia coli): >64 µg/mL | MIC Escherichia coli (GC 4560) (Escherichia coli): 32 µg/mL
